Laboratory results from ChEMBL document CHEMBL1201862, “PubChem BioAssay data set” (2004).
The source made the active and inactive calls.

Key:
[1] = off-target signal loss in HeLa-CEM21 co-culture – HeLa F-luc CTL cells, cherry-picked, counter-screen for HIV-1 Env fusion inhibitor project, dose response (AID 652040); assay type: functional, cell-based;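 further: potency for signal decrease marking cytotoxic or nonspecific inhibition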
[2] = viability loss in CEM21 cells – cell-based, CellTiter-Glo luminescence, cherry-picked, cytotoxicity control for viral fusion inhibitor project, dose response (AID 652042); assay type: functional;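 further: potency for signal decrease meaning cytotoxicity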
[3] = HIV-1 AD8 envelope cell-cell fusion blockers – cherry-pick, dose response (AID 652062); assay type: functional, cell-based;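 further: luciferase signal from cell-cell fusion driven by HIV-1 clade B AD8 Env; potency is for inhibitors of fusion seen as a drop in luminescence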
[4] = blockers of HIV-1 envelope-mediated cell-cell fusion – cherry-pick, dose response (AID 652057); assay type: functional, cell-based
[5] = blockers of HIV-1 ZM109 envelope-driven cell-cell fusion – HeLa effector, CEM target cells, luciferase, cherry-pick, dose response (AID 652058); assay type: functional, cell-based;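 further: luciferase signal from HIV-1 Env mediated cell-cell fusion of effector and target cells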
[6] = cells; assay type: functional, cell-based
[7] = target: T1, Trace amine-associated receptor 1 (Homo sapiens, UniProt Q96RJ0); assay: Fluorescence-based cell-based high throughput dose response assay to identify agonists of the human trace amine associated receptor 1 (TAAR1).; assay type: functional
T1 sequence (Q96RJ0 whole entry): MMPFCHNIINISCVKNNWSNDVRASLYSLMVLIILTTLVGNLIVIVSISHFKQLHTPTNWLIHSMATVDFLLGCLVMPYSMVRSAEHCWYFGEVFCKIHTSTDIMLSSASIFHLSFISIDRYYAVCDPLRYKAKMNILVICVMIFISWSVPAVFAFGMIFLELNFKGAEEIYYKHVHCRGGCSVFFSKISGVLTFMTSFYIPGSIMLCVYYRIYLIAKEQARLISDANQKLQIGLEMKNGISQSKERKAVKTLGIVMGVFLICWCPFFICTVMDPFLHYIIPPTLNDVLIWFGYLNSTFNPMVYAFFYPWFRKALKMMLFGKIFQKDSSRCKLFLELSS

[8] = cells; assay type: functional, cell-based; remark: listed apart in the source
[9] = target: T1, Trace amine-associated receptor 1; assay: Counterscreen for agonists of the human trace amine associated receptor 1 (hTAAR1): Fluorescence-based cell-based high throughput dose response assay to identify hTAAR1 agonist that also desensitize TAAR1 receptor response.; assay type: functional
[10] = target: T2, Voltage-gated N-type calcium channel alpha-1B subunit/Amyloid beta A4 precursor protein-binding family A member 1 (Homo sapiens, UniProt Q00975+Q02410); assay type: protein assay
[11] = target: T3, Polyadenylate-binding protein 1 (Homo sapiens, UniProt P11940); assay: MLLE domain peptide-binding blockers, IC50 – biochemical, fluorescence polarization, FITC-PAM2 peptide, dose response (AID 602259); assay type: functional; conditions: read-out: IC50_Mean
[12] = target: T3, Polyadenylate-binding protein 1; assay: MLLE binding blockers, Cy5 peptide tracer – biochemical, fluorescence polarization, Cy5-PAM2 peptide, secondary, miRNA deadenylation inhibitor project, dose response (AID 602260); assay type: functional; conditions: read-out: IC50_Mean
[13] = target: T2, Voltage-gated N-type calcium channel alpha-1B subunit/Amyloid beta A4 precursor protein-binding family A member 1; assay type: protein assay; remark: listed apart in the source
[14] = target: Prothrombin (Homo sapiens, UniProt P00734); assay: Thrombin 1536 HTS Dose Response Confirmation. [Related pubchem assays: 1046 (Thrombin 1536 HTS; hits were confirmed in this assay)]; assay type: functional
[15] = target: T4, Long-chain-fatty-acid--AMP ligase FadD28 (Mycobacterium tuberculosis, UniProt P9WQ59); assay: Fluorescence polarization aasay to screen for inhibitors that compete for the binding of FadD28 to a bisubstrate Measured in Biochemical System Using Plate Reader - 2147-01_Inhibitor_Dose_CherryPick_Activity.; assay type: functional, Mycobacterium tuberculosis H37Rv
T4 sequence (P9WQ59 whole entry): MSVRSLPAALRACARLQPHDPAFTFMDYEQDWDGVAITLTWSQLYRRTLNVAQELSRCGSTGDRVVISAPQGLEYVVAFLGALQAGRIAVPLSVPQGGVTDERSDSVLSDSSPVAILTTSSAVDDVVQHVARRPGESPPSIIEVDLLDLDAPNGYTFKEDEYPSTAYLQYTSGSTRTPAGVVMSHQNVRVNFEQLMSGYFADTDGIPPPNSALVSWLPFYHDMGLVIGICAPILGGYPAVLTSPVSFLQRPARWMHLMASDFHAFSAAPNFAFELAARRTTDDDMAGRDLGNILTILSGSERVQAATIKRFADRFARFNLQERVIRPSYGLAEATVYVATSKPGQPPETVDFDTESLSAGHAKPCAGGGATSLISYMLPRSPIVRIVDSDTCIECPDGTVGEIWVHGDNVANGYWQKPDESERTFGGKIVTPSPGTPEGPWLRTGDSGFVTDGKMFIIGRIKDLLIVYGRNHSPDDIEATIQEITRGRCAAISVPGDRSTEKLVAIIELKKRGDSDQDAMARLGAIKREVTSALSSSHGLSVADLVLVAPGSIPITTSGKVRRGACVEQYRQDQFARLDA

[16] = target: DNA dC->dU-editing enzyme APOBEC-3G (Homo sapiens, UniProt Q9HC16); assay: Dose Response confirmation of small molecule APOBEC3G DNA Deaminase Inhibitors via a fluorescence-based single-stranded DNA deaminase assay. [Related pubchem assays (depositor defined):AID493012, AID493028]; assay type: functional
[17] = target: Glucose-6-phosphate 1-dehydrogenase (Homo sapiens, UniProt P11413); assay: inhibition of Homo sapiens G6PD, dose series – biochemical, fluorescence, selectivity assay for P. falciparum G6PD inhibitor project, dose response (AID 504792); assay type: functional
[18] = target: DNA dC->dU-editing enzyme APOBEC-3A (Homo sapiens, UniProt P31941); assay: A3A deaminase inhibition for selectivity – biochemical, dose response (AID 504722); assay type: functional
[19] = viability loss in HEK293 cells – cell-based, plate reader, cherry-picked samples, cytotoxicity control, dose response (AID 743446); assay type: functional
[20] = toxicity toward HepG2 liver cells – cell-based, plate reader, cherry-pick, antagonist series, cytotoxicity control, dose response (AID 743416); assay type: functional
[21] = blockers of bursicon-stimulated LGR2 cAMP reporter – cell-based, HEK293, CRE-luciferase reporter, cherry pick, set 2, dose response (AID 743343); assay type: functional;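 further: transfected cells were stimulated with diluted bursicon conditioned medium after compound addition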
[22] = blockade of melanocortin 4 receptor signaling – cell-based, plate reader, cherry pick, counter-screen for LGR2 antagonist project, dose response (AID 743444); assay type: functional;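 further: transfected HEK 293 cells stimulated with alpha-MSH peptide; potency of inhibitors of the alpha-MSH evoked signal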
[23] = A549 cell cytotoxicity, dose response, cytotoxicity control, plate reader, cherry-pick, antagonist series (AID 743412); assay type: functional, cell-based
[24] = target: Ephrin type-A receptor 4 (Mus musculus, UniProt Q03137); assay: EphA4 ligand-binding antagonists – biochemical, colorimetric, mouse EphA4, primary screen (AID 689); assay type: functional
[25] = IGROV1 cell killing – plate reader, dry powder samples, PAX8 inhibitor project, dose response (AID 743043); assay type: functional, cell-based; conditions: IGROV-1
[26] = target: Paired box protein Pax-8 (Homo sapiens, UniProt Q06710); assay: PAX8 transcriptional activity inhibition in RMG-I – RMG-I cells, luciferase, cherry-pick, dose response (AID 687027); assay type: functional, cell-based;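 further: luciferase reporter driven by Pax8 target thyroperoxidase promoter measured by SteadyGlo luminescence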
[27] = OVCAR8 cell viability loss – plate reader, dry powder samples, PAX8 project, dose response (AID 743197); assay type: functional, cell-based; conditions: OVCAR-8
[28] = OVCAR-3 cell viability loss – plate reader, dry powder samples, PAX8 inhibitor project, dose response (AID 743044); assay type: functional, cell-based

T2 sequence (Q00975 whole entry, the tested form may be a part): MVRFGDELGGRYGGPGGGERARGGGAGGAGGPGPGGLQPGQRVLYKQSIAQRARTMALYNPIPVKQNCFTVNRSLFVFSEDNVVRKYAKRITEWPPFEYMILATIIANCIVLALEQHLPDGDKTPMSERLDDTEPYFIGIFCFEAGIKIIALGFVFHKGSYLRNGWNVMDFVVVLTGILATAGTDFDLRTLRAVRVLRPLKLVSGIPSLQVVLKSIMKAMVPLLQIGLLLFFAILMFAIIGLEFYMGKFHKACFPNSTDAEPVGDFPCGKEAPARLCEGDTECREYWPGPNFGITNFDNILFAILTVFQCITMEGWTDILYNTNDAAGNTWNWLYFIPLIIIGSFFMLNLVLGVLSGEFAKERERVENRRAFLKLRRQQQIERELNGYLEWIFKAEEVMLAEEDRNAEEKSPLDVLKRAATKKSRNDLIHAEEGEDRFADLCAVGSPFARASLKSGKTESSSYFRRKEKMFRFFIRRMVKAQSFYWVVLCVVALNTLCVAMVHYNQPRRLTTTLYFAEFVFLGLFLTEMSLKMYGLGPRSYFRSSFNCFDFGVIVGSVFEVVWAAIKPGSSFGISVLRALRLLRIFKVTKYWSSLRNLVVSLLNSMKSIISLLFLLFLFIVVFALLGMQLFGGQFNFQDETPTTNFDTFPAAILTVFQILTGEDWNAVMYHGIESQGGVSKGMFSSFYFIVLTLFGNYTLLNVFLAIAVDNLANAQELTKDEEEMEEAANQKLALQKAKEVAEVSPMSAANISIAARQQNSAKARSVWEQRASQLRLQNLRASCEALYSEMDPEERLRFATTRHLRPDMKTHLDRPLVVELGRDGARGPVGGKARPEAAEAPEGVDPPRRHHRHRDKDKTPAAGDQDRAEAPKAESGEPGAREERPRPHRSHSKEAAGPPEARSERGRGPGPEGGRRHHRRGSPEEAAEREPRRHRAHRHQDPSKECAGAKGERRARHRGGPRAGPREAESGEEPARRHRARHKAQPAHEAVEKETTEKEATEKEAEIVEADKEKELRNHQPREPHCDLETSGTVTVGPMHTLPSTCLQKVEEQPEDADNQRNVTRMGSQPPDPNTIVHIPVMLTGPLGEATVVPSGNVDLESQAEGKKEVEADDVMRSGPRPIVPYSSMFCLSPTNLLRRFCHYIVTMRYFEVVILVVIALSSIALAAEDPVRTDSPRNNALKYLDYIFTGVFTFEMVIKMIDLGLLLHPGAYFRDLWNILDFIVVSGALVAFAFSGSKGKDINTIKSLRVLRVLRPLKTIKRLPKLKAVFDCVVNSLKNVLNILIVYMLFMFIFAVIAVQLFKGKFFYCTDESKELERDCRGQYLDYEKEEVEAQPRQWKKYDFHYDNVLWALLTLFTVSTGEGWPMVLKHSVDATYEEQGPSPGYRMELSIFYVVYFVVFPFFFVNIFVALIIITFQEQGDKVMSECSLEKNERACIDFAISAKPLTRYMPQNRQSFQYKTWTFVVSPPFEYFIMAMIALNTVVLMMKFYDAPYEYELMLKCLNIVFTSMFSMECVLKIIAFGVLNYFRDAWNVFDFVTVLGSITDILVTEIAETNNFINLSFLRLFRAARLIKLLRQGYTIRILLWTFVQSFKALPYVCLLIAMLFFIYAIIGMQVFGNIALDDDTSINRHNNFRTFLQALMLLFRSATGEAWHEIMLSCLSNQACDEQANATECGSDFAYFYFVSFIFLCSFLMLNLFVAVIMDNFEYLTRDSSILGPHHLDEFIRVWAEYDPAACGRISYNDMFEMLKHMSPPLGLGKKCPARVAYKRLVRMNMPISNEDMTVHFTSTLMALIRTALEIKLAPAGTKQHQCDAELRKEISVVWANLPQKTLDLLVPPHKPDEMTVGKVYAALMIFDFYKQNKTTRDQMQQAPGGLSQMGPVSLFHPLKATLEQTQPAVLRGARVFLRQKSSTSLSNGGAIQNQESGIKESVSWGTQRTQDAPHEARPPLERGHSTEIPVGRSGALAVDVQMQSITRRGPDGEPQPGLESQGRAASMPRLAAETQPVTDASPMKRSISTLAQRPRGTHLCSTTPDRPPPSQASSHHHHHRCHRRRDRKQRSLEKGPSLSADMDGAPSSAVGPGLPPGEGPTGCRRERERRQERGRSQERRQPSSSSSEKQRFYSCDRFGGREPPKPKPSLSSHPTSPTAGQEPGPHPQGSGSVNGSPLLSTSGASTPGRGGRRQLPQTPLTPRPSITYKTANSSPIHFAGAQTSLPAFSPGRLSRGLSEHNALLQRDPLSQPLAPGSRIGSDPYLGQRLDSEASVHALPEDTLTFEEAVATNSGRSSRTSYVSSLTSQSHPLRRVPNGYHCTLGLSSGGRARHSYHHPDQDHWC
T2 sequence (Q02410 whole entry, the tested form may be a part): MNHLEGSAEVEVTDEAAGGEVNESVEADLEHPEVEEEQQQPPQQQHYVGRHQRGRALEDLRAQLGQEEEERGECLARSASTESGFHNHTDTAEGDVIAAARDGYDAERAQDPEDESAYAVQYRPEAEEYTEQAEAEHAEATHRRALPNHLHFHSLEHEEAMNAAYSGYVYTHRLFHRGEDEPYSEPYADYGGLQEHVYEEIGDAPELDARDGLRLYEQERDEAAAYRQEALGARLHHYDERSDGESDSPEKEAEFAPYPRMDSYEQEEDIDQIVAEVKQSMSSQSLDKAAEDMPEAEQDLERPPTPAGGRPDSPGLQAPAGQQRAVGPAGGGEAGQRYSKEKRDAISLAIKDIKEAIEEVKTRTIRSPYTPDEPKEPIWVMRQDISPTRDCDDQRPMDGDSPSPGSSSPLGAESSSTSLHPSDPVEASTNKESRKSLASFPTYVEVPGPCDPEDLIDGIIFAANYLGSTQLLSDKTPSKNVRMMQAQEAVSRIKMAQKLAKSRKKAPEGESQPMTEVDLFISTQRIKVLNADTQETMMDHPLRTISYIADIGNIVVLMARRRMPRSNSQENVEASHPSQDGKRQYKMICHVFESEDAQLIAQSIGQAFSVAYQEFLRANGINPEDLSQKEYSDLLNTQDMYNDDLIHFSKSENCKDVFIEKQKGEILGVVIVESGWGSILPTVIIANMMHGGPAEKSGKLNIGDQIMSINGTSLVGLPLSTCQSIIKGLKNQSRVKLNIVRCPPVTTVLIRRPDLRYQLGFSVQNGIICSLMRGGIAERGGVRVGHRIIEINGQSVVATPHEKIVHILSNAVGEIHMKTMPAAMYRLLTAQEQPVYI
T3 sequence (P11940 whole entry, the tested form may be a part): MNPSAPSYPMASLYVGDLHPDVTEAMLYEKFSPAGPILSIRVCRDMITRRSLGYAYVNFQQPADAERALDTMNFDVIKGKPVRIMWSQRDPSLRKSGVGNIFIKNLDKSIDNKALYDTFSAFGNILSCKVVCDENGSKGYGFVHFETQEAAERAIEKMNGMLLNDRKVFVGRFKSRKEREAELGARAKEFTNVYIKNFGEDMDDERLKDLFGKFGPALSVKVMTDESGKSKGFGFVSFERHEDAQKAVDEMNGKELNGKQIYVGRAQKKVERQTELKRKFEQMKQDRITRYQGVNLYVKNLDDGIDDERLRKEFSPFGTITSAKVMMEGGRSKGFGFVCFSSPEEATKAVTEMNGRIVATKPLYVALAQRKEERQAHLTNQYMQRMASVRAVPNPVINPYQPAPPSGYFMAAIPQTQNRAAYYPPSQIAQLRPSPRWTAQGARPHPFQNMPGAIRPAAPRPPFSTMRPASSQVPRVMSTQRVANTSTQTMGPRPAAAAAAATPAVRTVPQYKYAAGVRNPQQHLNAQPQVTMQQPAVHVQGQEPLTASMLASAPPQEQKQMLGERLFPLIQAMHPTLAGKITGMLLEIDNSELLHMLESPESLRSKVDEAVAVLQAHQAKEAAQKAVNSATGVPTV
Chain of DNA dC->dU-editing enzyme APOBEC-3G (Q9HC16 whole entry): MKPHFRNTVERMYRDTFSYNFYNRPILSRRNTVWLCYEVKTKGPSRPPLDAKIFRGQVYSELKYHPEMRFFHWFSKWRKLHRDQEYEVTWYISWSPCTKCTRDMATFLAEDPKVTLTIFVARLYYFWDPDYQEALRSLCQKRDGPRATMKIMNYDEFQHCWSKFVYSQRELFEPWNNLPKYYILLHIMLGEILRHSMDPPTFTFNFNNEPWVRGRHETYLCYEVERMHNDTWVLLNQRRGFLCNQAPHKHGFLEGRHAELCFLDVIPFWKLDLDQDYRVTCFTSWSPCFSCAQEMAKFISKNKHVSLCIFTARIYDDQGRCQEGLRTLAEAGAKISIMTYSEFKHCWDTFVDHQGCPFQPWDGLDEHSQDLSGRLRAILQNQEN
Chain of Paired box protein Pax-8 (Q06710 whole entry): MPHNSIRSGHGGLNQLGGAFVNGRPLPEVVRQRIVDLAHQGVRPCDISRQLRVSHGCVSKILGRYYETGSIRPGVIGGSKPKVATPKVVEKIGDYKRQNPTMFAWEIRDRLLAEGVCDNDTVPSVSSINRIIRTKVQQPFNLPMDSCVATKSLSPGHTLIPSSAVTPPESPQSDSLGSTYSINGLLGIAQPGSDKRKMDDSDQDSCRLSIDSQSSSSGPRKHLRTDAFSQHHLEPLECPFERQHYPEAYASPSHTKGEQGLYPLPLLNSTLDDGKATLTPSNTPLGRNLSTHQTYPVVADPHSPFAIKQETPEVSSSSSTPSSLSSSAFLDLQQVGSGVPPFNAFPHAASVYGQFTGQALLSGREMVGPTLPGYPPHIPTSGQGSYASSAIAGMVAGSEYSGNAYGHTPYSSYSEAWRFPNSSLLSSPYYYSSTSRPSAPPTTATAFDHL
Chain of DNA dC->dU-editing enzyme APOBEC-3A (P31941 whole entry): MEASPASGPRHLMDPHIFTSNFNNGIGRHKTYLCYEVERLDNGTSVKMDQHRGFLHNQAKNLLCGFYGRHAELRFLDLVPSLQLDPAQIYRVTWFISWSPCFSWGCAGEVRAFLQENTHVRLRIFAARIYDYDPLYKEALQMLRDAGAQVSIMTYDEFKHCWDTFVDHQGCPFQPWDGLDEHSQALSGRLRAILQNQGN

For `O=S(=O)(NCC(Nc1ccccc1)c1ccccc1)c1ccc(Cl)cc1` (stereo unspecified), the AC50 [1] was 10.4 µM (active), the AC50 [2] was 19 µM (active) and the AC50 [3] was 34.8 µM (active). For the same compound, the AC50 [4] was 2.48 µM (active) and the AC50 [5] was 2.15 µM (active).
With `CCOC(=O)C(NCCc1ccccc1F)(NC(C)=O)C(F)(F)F` (stereo unspecified) the EC50 [6] was > 29.9 µM (inactive), the EC50 [7] was 1.84 µM (active) and the IC50 [8] was > 29.9 µM (inactive). The IC50 [9] was > 29.9 µM (inactive).
In the case of `N#CC1=C(N)N=C(S)C(C(N)=O)C1c1ccc([N+](=O)[O-])cc1` (stereo unspecified), the IC50 [10] is reported as > 50 µM (inactive), the IC50 [11] is reported as > 66 µM (inactive) and the IC50 [12] is reported as > 66 µM (inactive). The IC50 [13] was 5.63 µM (active).
With `Cc1ccc2[nH]c(=O)c(C=C3C(=O)NC(=S)NC3=O)cc2c1` the IC50 [10] was 42.1 µM (active) and the IC50 [13] was 9.32 µM (active).
With `Oc1nc2ccc(Cl)cc2c(-c2ccccc2)c1N1CCOCC1` the IC50 [14] was > 50 µM (not active).
In the case of `CCC1=NN(C(=O)c2ccccc2Br)C(O)(c2ccc(Br)cc2)C1` (stereo unspecified), the AC50 [15] is reported as > 100 µM (inactive).
With `COc1ccccc1CCn1cnc(-c2ccc(Br)cc2)c1CC(C)C` the EC50 [6] was > 29.9 µM (inactive), the EC50 [7] was 1.75 µM (active) and the IC50 [8] was 25.7 µM (inactive). For the same compound, the IC50 [9] was 7.08 µM (active).
For `Cc1cc(C)c2c(=O)n(CC(=O)Nc3cccc(F)c3)sc2n1`, the IC50 [10] was > 50 µM (inactive), the IC50 [16] was 4.35 µM (active) and the IC50 [17] was 22.1 µM (inactive). The IC50 [13] was 8.62 µM (active) and the IC50 [18] was > 100 µM (inactive).
In the case of `O=C(CN1CCN(C(=O)CNC(=O)c2ccc(-c3ccccc3)cc2)CC1)Nc1ccccc1Cl`, the AC50 [19] is reported as 30.1 µM (active), the AC50 [20] is reported as 31.7 µM (active) and the AC50 [21] is reported as 43.4 µM (active). For the same compound, the AC50 [22] was 48.1 µM (active) and the AC50 [23] was 24.9 µM (active).
With `CCN(CC)C(=O)CSc1nc2cc(OC)c(OC)cc2c(=O)n1Cc1ccc(Cl)cc1` the IC50 [24] was > 100 µM (not active).
With `CC(C)c1ccc(N(C(=O)c2csnn2)C(C(=O)NC2CCCC2)c2ccncc2)cc1` (stereo unspecified) the AC50 [1] was 1.59 µM (active), the AC50 [2] was 60.5 µM (active) and the AC50 [3] was 1.76 µM (active). The AC50 [4] was 0.795 µM (active) and the AC50 [5] was 0.654 µM (active).
In the case of `C[C@@H]1CN([C@@H](C)CO)C(=O)Cc2cc(NS(=O)(=O)c3ccc(F)cc3)ccc2O[C@H]1CN(C)Cc1ccc(C(F)(F)F)cc1`, the AC50 [25] is reported as 29.2 µM (active), the AC50 [26] is reported as 4.76 µM (active) and the AC50 [27] is reported as 26.9 µM (active). For the same compound, the AC50 [28] was 19.7 µM (active).
